Test: physchem
Conditions: octanol/water
Description: Octanol-water partition coefficient, log P of the compound

First: CC(=O)Oc1ccc(/C=C/C(=O)N(c2ccccc2)c2cccc3c(S(=O)(=O)Nc4ccccc4)cccc23)cc1OC(C)=O
Second: CCN(c1ccccc1)S(=O)(=O)c1cccc2c(N(C(=O)/C=C/c3ccc(OC(C)=O)c(OC(C)=O)c3)c3ccccc3)cccc12
The logP of the first is lower: 5.59 for the first, 6.18 for the second.

Compared with `CCc1ccccc1NS(=O)(=O)c1cccc2c(NC(=O)/C=C/c3ccc(OC(C)=O)c(OC(C)=O)c3)cccc12`, `CCCc1ccccc1NS(=O)(=O)c1cccc2c(NC(=O)/C=C/c3ccc(OC(C)=O)c(OC(C)=O)c3)cccc12` is higher in logP: 4.53 for the first, 4.92 for the second.

Compared with `O=C(/C=C/c1ccc(O)c(O)c1)Nc1cccc2c(S(=O)(=O)Nc3ccc(Br)cc3)cccc12`, `O=C(/C=C/c1ccc(O)c(O)c1)Nc1cccc2c(S(=O)(=O)Nc3ccc(Cl)cc3)cccc12` is lower in logP: 4.14 for the first, 3.71 for the second.

First: CCc1ccc(NS(=O)(=O)c2cccc3c(NC(=O)/C=C/c4ccc(OC(C)=O)c(OC(C)=O)c4)cccc23)cc1
Second: CC(=O)Oc1ccc(/C=C/C(=O)Nc2cccc3c(S(=O)(=O)Nc4ccc(C)cc4)cccc23)cc1OC(C)=O
The logP of the first is higher: 4.53 for the first, 3.8 for the second.

Going from `CC(=O)Oc1ccc(/C=C/C(=O)N(c2cccc3c(S(=O)(=O)Nc4ccccc4)cccc23)C(F)(F)F)cc1OC(C)=O` to `CC(=O)Oc1ccc(/C=C/C(=O)N(c2cccc3c(S(=O)(=O)Nc4cccc(C(F)(F)F)c4)cccc23)C(F)(F)F)cc1OC(C)=O`, the logP rises from 5.66 to 6.54.

First: CCCc1cccc(NS(=O)(=O)c2cccc3c(NC(=O)/C=C/c4ccc(OC(C)=O)c(OC(C)=O)c4)cccc23)c1
Second: CCc1cccc(NS(=O)(=O)c2cccc3c(NC(=O)/C=C/c4ccc(OC(C)=O)c(OC(C)=O)c4)cccc23)c1
The logP of the first is higher: 4.92 for the first, 4.53 for the second.

Compared with `CC(=O)Oc1ccc(/C=C/C(=O)Nc2cccc3c(S(=O)(=O)NCc4ccccc4)cccc23)cc1OC(C)=O`, `CC(=O)Oc1ccc(/C=C/C(=O)Nc2cccc3c(S(=O)(=O)NCCc4ccccc4)cccc23)cc1OC(C)=O` is lower in logP: 4.1 for the first, 3.76 for the second.

Going from `CC(=O)Oc1ccc(/C=C/C(=O)N(SC(F)(F)F)c2cccc3c(S(=O)(=O)Nc4ccc(S(=O)(=O)C(F)(F)F)cc4)cccc23)cc1OC(C)=O` to `CC(=O)Oc1ccc(/C=C/C(=O)N(c2cccc3c(S(=O)(=O)Nc4ccc(S(=O)(=O)C(F)(F)F)cc4)cccc23)C(F)(F)F)cc1OC(C)=O`, the logP falls from 7.16 to 6.03.

First: CC(=O)Oc1ccc(/C=C/C(=O)Nc2cccc3c(S(=O)(=O)Nc4ccccc4C(C)C)cccc23)cc1OC(C)=O
Second: CC(=O)Oc1ccc(/C=C/C(=O)Nc2cccc3c(S(=O)(=O)Nc4ccccc4C)cccc23)cc1OC(C)=O
The logP of the first is higher: 4.86 for the first, 4.18 for the second.

Compared with `CC(=O)Oc1ccc(/C=C/C(=O)Nc2cccc3c(S(=O)(=O)Nc4ccccc4)cccc23)cc1OC(C)=O`, `CC(=O)Oc1ccc(/C=C/C(=O)Nc2cccc3c(S(=O)(=O)Nc4ccc(Cl)cc4)cccc23)cc1OC(C)=O` is higher in logP: 3.66 for the first, 4.01 for the second.

Going from `CCS(=O)(=O)c1ccc(NS(=O)(=O)c2cccc3c(N(C(=O)/C=C/c4ccc(OC(C)=O)c(OC(C)=O)c4)S(=O)(=O)C(F)(F)F)cccc23)cc1` to `CC(=O)Oc1ccc(/C=C/C(=O)N(c2cccc3c(S(=O)(=O)Nc4ccc(SC(F)(F)F)cc4)cccc23)S(=O)(=O)C(F)(F)F)cc1OC(C)=O`, the logP rises from 4.81 to 7.16.

`CC(=O)Oc1ccc(/C=C/C(=O)Nc2cccc3c(S(=O)(=O)Nc4ccccc4C(F)(F)F)cccc23)cc1OC(C)=O` and `CC(=O)Oc1ccc(/C=C/C(=O)Nc2cccc3c(S(=O)(=O)Nc4ccc(C(F)(F)F)cc4)cccc23)cc1OC(C)=O` are the same in logP: 4.55 for the first, 4.55 for the second.

Compared with `CCS(=O)(=O)N(C(=O)/C=C/c1ccc(OC(C)=O)c(OC(C)=O)c1)c1cccc2c(S(=O)(=O)Nc3ccccc3)cccc12`, `CCS(=O)(=O)c1cc(NC(=O)/C=C/c2ccc(OC(C)=O)c(OC(C)=O)c2)c2cccc(S(=O)(=O)Nc3ccccc3)c2c1` is lower in logP: 3.92 for the first, 3.15 for the second.

First: CC(=O)Oc1ccc(/C=C/C(=O)N(c2cccc3c(S(=O)(=O)Nc4ccc(C(F)(F)F)cc4)cccc23)C(F)(F)F)cc1OC(C)=O
Second: CC(=O)Oc1ccc(/C=C/C(=O)Nc2cccc3c(S(=O)(=O)Nc4ccc(SC(F)(F)F)cc4)cccc23)cc1OC(C)=O
The logP of the first is higher: 6.54 for the first, 5.5 for the second.

Compared with `CC(=O)Oc1ccc(/C=C/C(=O)Nc2cccc3c(S(=O)(=O)Nc4ccc(F)cc4)cccc23)cc1OC(C)=O`, `CC(=O)Oc1ccc(/C=C/C(=O)Nc2cccc3c(S(=O)(=O)Nc4ccc(Br)cc4)cccc23)cc1OC(C)=O` is higher in logP: 4.19 for the first, 4.44 for the second.

Compared with `O=C(/C=C/c1ccc(O)c(O)c1)Nc1cccc2c(S(=O)(=O)Nc3ccccc3)cccc12`, `O=C(/C=C/c1ccc(O)c(O)c1)Nc1cccc2c(S(=O)(=O)NCc3ccccc3)cccc12` is higher in logP: 4.46 for the first, 4.89 for the second.

First: O=C(/C=C/c1ccc(O)c(O)c1)Nc1cccc2c(S(=O)(=O)NCCc3ccccc3)cccc12
Second: Cc1ccccc1NS(=O)(=O)c1cccc2c(NC(=O)/C=C/c3ccc(O)c(O)c3)cccc12
The logP of the first is lower: 4.13 for the first, 4.6 for the second.

`CC(=O)Oc1ccc(/C=C/C(=O)Nc2cccc3c(S(=O)(=O)Nc4cccc(C(C)C)c4)cccc23)cc1OC(C)=O` and `CC(=O)Oc1ccc(/C=C/C(=O)Nc2cccc3c(S(=O)(=O)Nc4ccc(C(C)C)cc4)cccc23)cc1OC(C)=O` are the same in logP: 4.86 for the first, 4.86 for the second.

Going from `CC(=O)Oc1ccc(/C=C/C(=O)Nc2cccc3c(S(=O)(=O)Nc4cccc([N+](=O)[O-])c4)cccc23)cc1OC(C)=O` to `CC(=O)Oc1ccc(/C=C/C(=O)Nc2cccc3c(S(=O)(=O)Nc4cccc(C)c4C)cccc23)cc1OC(C)=O`, the logP rises from 4.24 to 4.62.

First: CCS(=O)(=O)c1ccc(NS(=O)(=O)c2cccc3c(NC(=O)/C=C/c4ccc(OC(C)=O)c(OC(C)=O)c4)cccc23)cc1
Second: CC(=O)Oc1ccc(/C=C/C(=O)Nc2cccc3c(S(=O)(=O)Nc4ccc(S(=O)(=O)C(F)(F)F)cc4)cccc23)cc1OC(C)=O
The logP of the first is lower: 3.15 for the first, 4.55 for the second.

Going from `CCN(c1ccccc1)S(=O)(=O)c1cccc2c(N(C(=O)/C=C/c3ccc(OC(C)=O)c(OC(C)=O)c3)c3ccccc3)cc(C)cc12` to `CCCCc1cc(NC(=O)/C=C/c2ccc(OC(C)=O)c(OC(C)=O)c2)c2cccc(S(=O)(=O)Nc3ccccc3)c2c1`, the logP falls from 6.65 to 5.32.

Compared with `O=C(/C=C/c1ccc(O)c(O)c1)Nc1cccc2c(S(=O)(=O)Nc3ccc(F)cc3)cccc12`, `Cc1ccc(NS(=O)(=O)c2cccc3c(NC(=O)/C=C/c4ccc(O)c(O)c4)cccc23)cc1` is lower in logP: 4.57 for the first, 4.13 for the second.

Going from `CCc1ccc(N(C(=O)/C=C/c2ccc(OC(C)=O)c(OC(C)=O)c2)c2cc(C(F)(F)F)cc3c(S(=O)(=O)Nc4ccc(S(=O)(=O)CC)cc4)cccc23)cc1` to `CCCCN(c1ccc(F)cc1)S(=O)(=O)c1cccc2c(NC(=O)/C=C/c3ccc(OC(C)=O)c(OC(C)=O)c3)cccc12`, the logP falls from 7.34 to 5.12.

First: O=C(/C=C/c1ccc(O)c(O)c1)Nc1cccc2c(S(=O)(=O)Nc3cccc([N+](=O)[O-])c3)cccc12
Second: Cc1cccc(NS(=O)(=O)c2cccc3c(NC(=O)/C=C/c4ccc(O)c(O)c4)cccc23)c1C
The logP of the first is lower: 4.57 for the first, 5.03 for the second.
